From patent publication US20240041042A1, “1-(PYRIDYL)-5-AZINYLPYRAZOLE DERIVATIVES, AND THEIR USE FOR CONTROL OF UNDESIRED PLANT GROWTH” (Bayer Aktiengesellschaft, priority 2020, published 2024)
Like-named read-outs stand apart in the source and are kept apart here.

Tests used:
Type in all cases: in vivo
[1] = tested on: Alopecurus myosuroides (ALOMY); assay: Pre-emergence herbicidal action against ALOMY; details: 320 g/ha; scored visually after about 3 weeks; 100% = plants have died
Outline: (§1)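 Pre-emergence soil-surface spray, WP/EC formulation, 0.5% additive, 600 l/ha water, rates of 320 g/ha or lower. Greenhouse, ~3 wk. Visual score, % of untreated control (100% = plants dead, 0% = like control).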

[2] = tested on: Amaranthus retroflexus (AMARE); assay: Pre-emergence herbicidal action against AMARE; details: visual scoring after about 3 weeks vs untreated controls
Outline: as §1

Avena fatua (AVEFA) [3] = assay: Pre-emergence herbicidal action against AVEFA; details: 320 g/ha, visual scoring after about 3 weeks vs untreated controls
Outline: as §1

Lolium rigidum (LOLRI) [4] = assay: Pre-emergence herbicidal action against LOLRI; details: dosage 320 g/ha
Outline: as §1

Setaria viridis (SETVI) [5] = assay: Pre-emergence herbicidal action against SETVI; details: dosage 320 g/ha
Outline: as §1

Viola tricolor (VIOTR) [6] = assay: Pre-emergence herbicidal action against VIOTR
Outline: as §1

Brassica napus (BRSNW) = details: 80 g/ha, crop plant compatibility, in comparison to untreated controls
Outline: (§2)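 Crop injury rated visually in percent against untreated plants roughly 3 weeks after treatment (0% no effect, 100% plants dead). Compounds, as WP or EC with 0.5% additive in 600 l/ha water, were applied to the covering soil right after sowing; greenhouse growth. Suffixes a, b, c denote different dosages.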

Oryza sativa (ORYSA) [7] = details: pre-emergence, 80 g/ha, crop plant compatibility, in comparison to untreated controls
Outline: as §2

Zea mays (ZEAMX) [8] = details: pre-emergence, 80 g/ha, crop plant compatibility, in comparison to untreated controls
Outline: as §2

[9] = tested on: Alopecurus myosuroides (ALOMY); assay: Post-emergence herbicidal action against ALOMY; details: 320 g/ha, visual rating about 3 weeks after treatment vs untreated controls (100% = plants have died, 0% = like control plants)
Outline: (§3)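 Rates were 320 g/ha or below, applied as aqueous WP/EC spray with 0.5% additive (600 l/ha) onto one-leaf-stage plants. About 3 weeks later in the greenhouse, damage was scored visually against untreated plants on a 0–100% scale, where 100% means plants died.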

Avena fatua (AVEFA) [10] = assay: Post-emergence herbicidal action against AVEFA; details: 320 g/ha, visual rating about 3 weeks after treatment
Outline: as §3

[11] = tested on: Echinochloa crus-galli (ECHCG); assay: Post-emergence herbicidal action against ECHCG; details: dosage 320 g/ha
Outline: as §3

[12] = tested on: Polygonum convolvulus (POLCO); assay: Post-emergence herbicidal action against POLCO; details: dosage 320 g/ha
Outline: as §3

Setaria viridis (SETVI) [13] = assay: Post-emergence herbicidal action against SETVI; details: dosage 320 g/ha
Outline: as §3

[14] = tested on: Verconica persica (VERPE); assay: Post-emergence herbicidal action against VERPE; details: 320 g/ha, VERPE
Outline: as §3

Oryza sativa (ORYSA) [15] = details: crop plant compatibility, effect in comparison to untreated controls
Outline: (§4)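 Visual rating (% effect vs. untreated plants; 100% = plant death) made about 3 weeks after treatment. Plants had been sprayed at one-leaf stage, 2–3 weeks post-sowing, with aqueous WP/EC preparations containing 0.5% additive, 600 l/ha water volume; a, b, c mark dose levels.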

Zea mays (ZEAMX) [16] = details: crop plant compatibility, 80 g/ha, effect vs untreated controls
Outline: as §4

[17] = tested on: Digitaria sanguinalis (DIGSA); assay: Pre-emergence herbicidal action against DIGSA; details: dosage 320 g/ha
Outline: as §1

[18] = tested on: Amaranthus retroflexus (AMARE); assay: Post-emergence herbicidal action against AMARE; details: 320 g/ha, visual rating about 3 weeks after treatment
Outline: as §3

[19] = tested on: Pharbitis purpurea (PHBPU); assay: Post-emergence herbicidal action against PHBPU
Outline: as §3

Viola tricolor (VIOTR) [20] = assay: Post-emergence herbicidal action against VIOTR; details: 320 g/ha
Outline: as §3

[21] = tested on: Polygonum convolvulus (POLCO); assay: Pre-emergence herbicidal action against POLCO; details: dosage 320 g/ha
Outline: as §1

Lolium rigidum (LOLRI) [22] = assay: Post-emergence herbicidal action against LOLRI; details: dosage 320 g/ha
Outline: as §3

[23] = tested on: Abutilon theophrasti (ABUTH); assay: Post-emergence herbicidal action against ABUTH; details: 320 g/ha, visual rating about 3 weeks after treatment vs untreated controls (100% = plants have died, 0% = like control plants)
Outline: as §3

Structure (SMILES) | Pre-emergence action against ALOMY [1] [%] | Pre-emergence action against AMARE in % ([2]; 320 g/ha) [%] | Pre-emergence action against LOLRI in % (Lolium rigidum (LOLRI) [4]) [%] | Pre-emergence action against VIOTR in % (Viola tricolor (VIOTR) [6]; 320 g/ha, Viola tricolor) [%] | Pre-emergence action against BRSNW in % (Brassica napus (BRSNW)) [%] | Pre-emergence action against ORYSA in % (Oryza sativa (ORYSA) [7]) [%] | Pre-emergence action against ZEAMX in % (Zea mays (ZEAMX) [8]) [%] | Post-emergence action against ALOMY in % [9] [%] | Post-emergence action against AVEFA in % (Avena fatua (AVEFA) [10]) [%] | Post-emergence action against ECHCG in % [11] [%] | Post-emergence action against POLCO in % [12] [%] | Post-emergence action against SETVI in % (Setaria viridis (SETVI) [13]) [%] | Post-emergence action against VERPE in % [14] [%] | Post-emergence action against ORYSA in % (Oryza sativa (ORYSA) [15]; 80 g/ha) [%] | Post-emergence action against ZEAMX in % (Zea mays (ZEAMX) [16]) [%] | Pre-emergence action against POLCO in % [21] [%] | also measured
COC(=O)CCOC(=O)COc1nn(-c2ncccc2F)c(-c2ccc(F)nc2)c1Cl [Example I-272] | 90 | 90 | 80 | 90 | 0 | 10 | 0 | 90 | 80 | 80 | 80 | 80 | 80 | 10 | 10 | – | Pre-emergence action against AVEFA in % (Avena fatua (AVEFA) [3]): 100%; Pre-emergence action against SETVI in % (Setaria viridis (SETVI) [5]): 90%
COC(=O)CCOC(=O)[C@@H](C)Oc1nn(-c2ccccn2)c(-c2ccc(Cl)nc2)c1Cl [Example I-245] | 90 | 80 | 90 | 80 | 0 | – | 0 | 80 | 80 | – | 80 | – | – | 0 | – | – | Pre-emergence action against DIGSA in % [17]: 90%; Post-emergence action against AMARE in % [18]: 80%; Post-emergence action against PHBPU in % ([19]; dosage 80 g/ha): 80%; Post-emergence action against PHBPU in % ([19]; dosage 320 g/ha): 90%; Post-emergence action against VIOTR in % (Viola tricolor (VIOTR) [20]): 80%
COC(=O)CCOC(=O)COc1nn(-c2ncccc2C(F)(F)F)c(-c2ccc(F)nc2)c1Br [Example I-381] | 90 | 90 | 90 | 90 | 0 | 20 | 0 | – | – | 80 | – | – | 80 | 20 | 0 | 80 | Pre-emergence action against VIOTR in % (Viola tricolor (VIOTR) [6]; dosage 80 g/ha): 80%; Post-emergence action against LOLRI in % (Lolium rigidum (LOLRI) [22]): 80%; Post-emergence action against ORYSA in % (Oryza sativa (ORYSA) [15]; 320 g/ha): 20%
COCCOC(=O)COc1nn(-c2ncccc2C(F)(F)F)c(-c2ccc(F)nc2)c1Br [Example I-378] | 80 | 90 | 90 | 90 | 0 | 0 | 0 | – | – | 80 | – | 80 | 80 | 10 | 10 | 80 | Pre-emergence action against AMARE in % ([2]; 80 g/ha): 80%; Post-emergence action against ABUTH in % [23]: 80%
